Source: PubChem BioAssay (NCI)
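Protocol summary: plate cells (96-well), add compound at 5 concentrations, incubate 48 h, interpolate endpoints linearly. At the GI50, growth is halved. TGI denotes the concentration required for complete inhibition of growth.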

Columns and labels:
Assay in all cases: growth of human tumour cells (NCI), 48 h
K-562 leukemia = system: K-562 leukemia
M14 melanoma = system: M14 melanoma
MDA-MB-231 breast = system: MDA-MB-231 breast
MOLT-4 leukemia = system: MOLT-4 leukemia
OVCAR-3 ovarian = system: OVCAR-3 ovarian
SK-MEL-2 melanoma = system: SK-MEL-2 melanoma
SK-OV-3 ovarian = system: SK-OV-3 ovarian
SN12C renal = system: SN12C renal
MALME-3M melanoma = system: MALME-3M melanoma
OVCAR-4 ovarian = system: OVCAR-4 ovarian

| SMILES | GI50 (K-562 leukemia) | TGI (K-562 leukemia) | GI50 (M14 melanoma) | TGI (M14 melanoma) | GI50 (MDA-MB-231 breast) | TGI (MDA-MB-231 breast) | GI50 (MOLT-4 leukemia) | TGI (MOLT-4 leukemia) | GI50 (OVCAR-3 ovarian) | TGI (OVCAR-3 ovarian) | GI50 (SK-MEL-2 melanoma) | TGI (SK-MEL-2 melanoma) | GI50 (SK-OV-3 ovarian) | TGI (SK-OV-3 ovarian) | GI50 (SN12C renal) | TGI (SN12C renal) | GI50 (MALME-3M melanoma) | TGI (MALME-3M melanoma) | GI50 (OVCAR-4 ovarian) | TGI (OVCAR-4 ovarian) |
| --- | --- | --- | --- | --- | --- | --- | --- | --- | --- | --- | --- | --- | --- | --- | --- | --- | --- | --- | --- | --- |
| COc1ccc(C2=CSc3cc(Cl)c(C)cc3S(=O)(=O)N2C(C)=O)cc1 | 27.8 µM | > 100 µM | 49.1 µM | > 100 µM | 14.5 µM | 37.9 µM | 2.13 µM | > 100 µM | 15.8 µM | 41.4 µM | 63.4 µM | > 100 µM | 60.6 µM | > 100 µM | 13.7 µM | 41.7 µM | – | – | – | – |
| Cn1ccnc1C(=O)/C=C/c1ccc(CC(=O)Nc2ccc(Br)cc2)cc1 | 3.88 µM | > 16.7 µM | 2.63 µM | 6.07 µM | 4.78 µM | 15.6 µM | 3.69 µM | 14.8 µM | 4.02 µM | 14.4 µM | > 16.7 µM | > 16.7 µM | 8.88 µM | > 16.7 µM | 3.88 µM | 11.1 µM | 4.04 µM | 10.8 µM | 4.52 µM | > 16.7 µM |
| NC(CSC(c1ccccc1)(c1ccccc1)c1ccc2c(c1)OCO2)C(=O)O (stereo not drawn) | 0.406 µM | > 100 µM | 0.239 µM | 0.648 µM | 0.365 µM | 14.4 µM | 0.631 µM | 17 µM | 0.512 µM | 16.4 µM | 0.511 µM | 27.4 µM | 0.42 µM | > 100 µM | 0.633 µM | > 100 µM | 0.979 µM | 74.4 µM | 7.81 µM | > 81.6 µM |
| Cc1cc(=O)n2[nH]c(-c3ccc(C(C)(C)C)cc3)cc2n1 | 6.72 µM | > 100 µM | 12.7 µM | > 100 µM | 13 µM | > 100 µM | 6.56 µM | > 100 µM | 3.24 µM | 43.5 µM | 10.5 µM | 65.5 µM | 6.8 µM | 86 µM | 12.3 µM | > 100 µM | 2.76 µM | 29 µM | 12.7 µM | > 100 µM |
| O=c1n(CC2CO2)c(=O)n(CC2CO2)n1CC1CO1 (stereo not drawn) | 51.4 µM | > 100 µM | 21.9 µM | > 100 µM | > 96.4 µM | > 100 µM | 4.46 µM | > 100 µM | 13.7 µM | > 55.5 µM | > 73.5 µM | > 100 µM | 8.37 µM | > 80.2 µM | 9.03 µM | > 100 µM | 64.1 µM | > 100 µM | 19.2 µM | > 85 µM |
| Nc1cc2nc3ccccc3sc-2cc1=O | 2.48 µM | > 100 µM | 1.66 µM | 3.2 µM | 1.76 µM | 11.8 µM | 4.26 µM | > 100 µM | 1.76 µM | 7.09 µM | 2.03 µM | 4.24 µM | 13.1 µM | 53.5 µM | 1.72 µM | 3.4 µM | 2.04 µM | 3.62 µM | 2.15 µM | 6.21 µM |
| O=C1c2ccccc2C(=O)c2sc(Nc3cccc(Cl)c3)nc21 | – | 4.36 µM | – | 3.24 µM | 0.292 µM | 3.37 µM | – | 3.05 µM | – | 1.8 µM | – | 3.79 µM | – | 10.9 µM | – | 2.84 µM | – | 2.69 µM | – | 2.72 µM |
| CCCCCCCC(=O)SCC/C=C/[C@@H]1CC(=O)NCc2cccc(n2)C2=N[C@@](C)(CS2)C(=O)N[C@@H](C(C)C)C(=O)N1 | 0.658 µM | > 33.3 µM | 1.32 µM | > 33.3 µM | 2.08 µM | > 33.3 µM | 1.01 µM | > 33.3 µM | 0.402 µM | 9.27 µM | 1.03 µM | 15.6 µM | 1.23 µM | 11 µM | 3.25 µM | > 33.3 µM | 0.142 µM | 2.37 µM | 0.766 µM | > 33.3 µM |
| Fc1ccc(Nc2ncnc3ccc(-c4cnc5[nH]ccc5c4)cc23)cc1Cl | 3.48 µM | > 100 µM | 4.35 µM | > 100 µM | 2.03 µM | 6.06 µM | > 20.8 µM | > 100 µM | 1.51 µM | 3.73 µM | 16.6 µM | 68.2 µM | 4.62 µM | 32.6 µM | 1.73 µM | 4.88 µM | 2.05 µM | 7.84 µM | 1.51 µM | 3.92 µM |
| COc1c2ccoc2c(/C=C/C=O)c2oc(-c3ccccc3)cc(=O)c12 | 3.21 µM | > 100 µM | 3.32 µM | > 100 µM | 4.1 µM | > 100 µM | 2.06 µM | 5.24 µM | 5.19 µM | 21.7 µM | 10.6 µM | > 100 µM | 6.34 µM | 42.6 µM | – | – | 3.57 µM | 9.17 µM | 3.2 µM | > 100 µM |
| COC(=O)Nc1nc2ccc(S(=O)c3ccccc3)cc2[nH]1 (stereo not drawn) | – | – | 3.11 µM | > 100 µM | 7.45 µM | > 100 µM | 5.86 µM | > 100 µM | 7.39 µM | > 100 µM | 3.29 µM | > 100 µM | 3.23 µM | 12.4 µM | 6.98 µM | > 100 µM | 5.21 µM | > 100 µM | 7.73 µM | > 100 µM |
| CC(C)c1ccc(C(C)C(=O)N(CC2=C(C(C)c3ccccn3)c3ccccc3C2)C(C)C)cc1 (stereo not drawn) | 2.39 µM | 15 µM | 3.93 µM | 15.6 µM | 3.47 µM | 22.7 µM | 2.46 µM | 13.1 µM | 3.26 µM | 11.6 µM | 2.55 µM | 7.15 µM | 6.63 µM | > 100 µM | 1.88 µM | 3.51 µM | 2.83 µM | 8.57 µM | 3.07 µM | 86.7 µM |
